Measurements from patent US20250170140A1, “PHARMACEUTICAL COMPOSITION FOR PREVENTING OR TREATING CANCER COMPRISING CARNITINE ACYLCARNITINE CARRIER INHIBITOR AND PEROXISOMAL BETA OXIDATION INHIBITOR” (priority 2021, published 2025).

Legend:
U251 cells = assay: SRB assay, glioblastoma cell line U251; type: cell-based
Experimental: (§1) As a comparison, omeprazole (KN510) and trimetazidine (KN713), a 3-ketoacyl CoA thiolase inhibitor, were co-treated. […] After cell inoculation, 96-well cell culture plates were incubated for 24 hours before the addition of experimental drugs. […] The cells were then incubated in a CO2 incubator for 48 hours, after which the assay was terminated by the addition of cold TCA. Cells were fixed in situ by gently adding 50 μl of cold 50% (w/v) TCA (final concentration: 10% TCA) and incubated at 4° C. for 60 min. The supernatant was discarded, and the plate was washed five times with distilled water and air dried. Sulforhodamine B (SRB) solution (100 μl) of 0.4% (w/v) in 1% acetic acid was added to each well, and the plate was left at room temperature for 10 min. After staining, unbound dye was removed by washing five times with 1% acetic acid, and the plate was air-dried. The bound dye was then solubilized with 10 mM trizma base, and the absorbance was recorded at 515 nm using an automated plate reader. […] The predicted synergistic activity of a combination of the present invention can be calculated using the Colby Equation in Equation 1 (S.R. Colby, Weeds, 1967, pp. 15, 20-22): In the present invention, the actual measure of anti-cancer activity of the combination treatment was the inhibition rate of cancer cell growth (%), and the predicted value (E) of the combination treatment was measured by substituting it into the above Colby Equation.

H1975 cells = assay: SRB assay, lung cancer cells H1975; type: cell-based
Experimental: as §1

SMILES | inhibition at 5 µM (U251 cells; Homo sapiens, U-251, KN714 5 μM, read-out: Inhibition rate of cancer cell growth (%) (Actual value)) | inhibition at 10 µM (U251 cells; Homo sapiens, U-251, KN714 10 μM, read-out: Inhibition rate of cancer cell growth (%) (Actual value)) | Cancer cell growth rate Average (%) (U251 cells; KN714 5 μM) | Cancer cell growth rate Average (%) (U251 cells; KN714 10 μM) | inhibition at 5 µM (H1975 cells; Homo sapiens, NCI-H1975, KN714 5 μM, read-out: Inhibition rate of cancer cell growth (%) (Actual value)) | inhibition at 10 µM (H1975 cells; Homo sapiens, NCI-H1975, KN714 10 μM, read-out: Inhibition rate of cancer cell growth (%) (Actual value)) | Cancer cell growth rate Average (%) (H1975 cells; KN714 5 μM) | Cancer cell growth rate Average (%) (H1975 cells; KN714 10 μM) | inhibition at 100 µM (U251 cells; Homo sapiens, U-251, KN510 100 μM, read-out: Inhibition rate of cancer cell growth (%) (Actual value)) | inhibition at 200 µM (U251 cells; Homo sapiens, U-251, KN510 200 μM, read-out: Inhibition rate of cancer cell growth (%) (Actual value)) | Cancer cell growth rate Average (%) (U251 cells; KN510 100 μM) | Cancer cell growth rate Average (%) (U251 cells; KN510 200 μM) | inhibition at 100 µM (H1975 cells; Homo sapiens, NCI-H1975, KN510 100 μM, read-out: Inhibition rate of cancer cell growth (%) (Actual value)) | inhibition at 200 µM (H1975 cells; Homo sapiens, NCI-H1975, KN510 200 μM, read-out: Inhibition rate of cancer cell growth (%) (Actual value)) | Cancer cell growth rate Average (%) (H1975 cells; KN510 100 μM) | Cancer cell growth rate Average (%) (H1975 cells; KN510 200 μM)
CSc1ccc2c(c1)N(CCC1CCCCN1C)c1ccccc1S2 (stereo not shown) [KN714, 10-[2-(1-methyl-2-piperidyl)ethyl]-2-(methylthio)phenothiazine] | 40 | 121 | 59.99 | −20.54 | -13.9 | 8.1 | 113.89 | 91.90 |  |  |  |  |  |  |  | 
COc1ccc2[nH]c([S+]([O-])Cc3ncc(C)c(OC)c3C)nc2c1 (stereo not shown) [KN510, omeprazole] |  |  |  |  |  |  |  |  | 26.5 | 44.9 | 73.51 | 55.11 | 15.5 | 56.8 | 84.54 | 43.18
